Results on 19 compounds are retold here after patent US8440660B2 (Santen Pharmaceutical Co., Ltd., priority 2006, dated 2013).

Counter-ions that a name gives are not always drawn.

The target in this test is T1, Glucocorticoid Receptor (GR) (Homo sapiens, UniProt P04150).
T1 construct: purchased Invitrogen P2816
T1 sequence (P04150 1-777): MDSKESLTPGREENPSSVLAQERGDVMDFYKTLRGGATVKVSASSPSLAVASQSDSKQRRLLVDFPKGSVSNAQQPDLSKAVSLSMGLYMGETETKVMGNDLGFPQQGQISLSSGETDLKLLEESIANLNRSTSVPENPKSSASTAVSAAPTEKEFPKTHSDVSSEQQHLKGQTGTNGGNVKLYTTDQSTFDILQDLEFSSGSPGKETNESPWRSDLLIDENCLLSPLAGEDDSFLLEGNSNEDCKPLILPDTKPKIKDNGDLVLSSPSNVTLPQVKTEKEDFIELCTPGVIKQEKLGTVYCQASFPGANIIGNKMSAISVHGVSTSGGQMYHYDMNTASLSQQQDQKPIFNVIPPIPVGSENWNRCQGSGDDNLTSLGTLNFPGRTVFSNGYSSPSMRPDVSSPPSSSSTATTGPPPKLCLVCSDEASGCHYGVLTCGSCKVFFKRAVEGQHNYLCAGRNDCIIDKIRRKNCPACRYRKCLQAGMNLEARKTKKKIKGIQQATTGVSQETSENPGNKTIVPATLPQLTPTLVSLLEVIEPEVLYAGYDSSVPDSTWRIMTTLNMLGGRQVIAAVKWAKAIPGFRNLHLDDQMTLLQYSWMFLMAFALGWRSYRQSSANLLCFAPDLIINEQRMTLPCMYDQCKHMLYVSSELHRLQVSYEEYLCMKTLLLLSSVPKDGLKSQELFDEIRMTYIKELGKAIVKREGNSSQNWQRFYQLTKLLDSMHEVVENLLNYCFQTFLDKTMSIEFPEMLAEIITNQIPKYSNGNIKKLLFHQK
Nature of the test: GR receptor competitor assay by fluorescence polarization (Invitrogen GR competitor assay kit, cat No. P2816). The conditions noted are these: 20 μM test compound solution, 10 μL per well plus 5 μL 4×GS1 and 5 μL 4×GR solution; recombinant human GR; 2 to 4 hours at room temperature; a ratio of 100% or more is indicated by 100%; read-out: GR Binding ratio (%). The method, then:
A detailed explanation of this matter will be described in the section of “Pharmacological Test” in Examples described below. In order to find the usefulness of the present compound as a pharmaceutical, a glucocorticoid receptor competitor assay was carried out by a fluorescence polarization method by using a glucocorticoid receptor competitor assay kit (manufactured by Invitrogen, cat No P2816) to study the glucocorticoid receptor binding activity of the present compound.
1. Evaluation Test for Binding Activity to Glucocorticoid Receptor (Hereinafter Referred to as “GR”)
In order to evaluate a binding activity to GR, a receptor competitor assay was carried out by a fluorescence polarization method. In the assay, a GR competitor assay kit (manufactured by Invitrogen, cat No. P2816) was used, and a procedure was carried out according to the protocol attached to the kit. Hereinafter, the specific method will be described.
(Preparation of Reagents)
GR screening buffer: A buffer containing 10 mM potassium phosphate (pH 7.4), 20 mM sodium molybdate (Na2MoO4), 0.1 mM ethylene diamine tetraacetic acid (EDTA), 5 mM dithiothreitol (DTT), 0.1 mM stabilizing peptide and 2% dimethylsulfoxide was prepared.
4×GS1 solution: Fluormone™ GS1, which is a fluorescent glucocorticoid ligand, was diluted with GR screening buffer, whereby a 4 nM solution was prepared.
4×GR solution: Recombinant human GR was diluted with GR screening buffer, whereby a 16 nM solution was prepared.
(Preparation of Test Compound Solution)
After a test compound was dissolved in dimethylsulfoxide, the resulting solution was diluted with GR screening buffer, whereby a 20 μM test compound solution was prepared.
(Test Method and Measurement Method)
1) The test compound solution was added in an amount of 10 μL into each well of a 384-well plate, and then, 4×GS1 solution and 4×GR solution were added in an amount of 5 μL into each well, respectively.
2) The plate was incubated in a dark place at room temperature for 2 to 4 hours.
3) By using a multimode plate reader, Analyst™ HT (manufactured by LJL Biosystems), fluorescence polarization of each well was measured. As the blank, a well containing GR screening buffer in place of the test compound and 4×GS1 solution was used.
4) The same procedure as that in the above 1) to 3) was carried out except that GR screening buffer was used in place of the test compound solution, and the obtained result was taken as the negative control.
5) The same procedure as that in the above 1) to 3) was carried out except that 2 mM dexamethasone was used in place of the test compound solution, and the obtained result was taken as the positive control.
(Calculation Equation of GR Binding Ratio)
A GR binding ratio (%) was calculated from the following equation. GR binding ratio (%)=100×[1−(fluorescence polarization of test compound solution−fluorescence polarization of positive control solution)/(fluorescence polarization of negative control solution−fluorescence polarization of positive control solution)] (Test Results and Discussion)
In general terms: In fluorescence polarisation assays a small probe gives low polarisation when free and higher when bound to something large.
Turning to `COc1cc(OC(=O)c2occc2C)ccc1-c1ccc2c(c1COc1cc(F)ccc1C)C(C)=CC(C)(C)N2` [Compound 1-71, 5-(5-Fluoro-2-methylphenoxymethyl)-6-[2-methoxy-4-(3-methylfuran-2-ylcarbonyloxy)phenyl]-2,2,4-trimethyl-1,2-dihydroquinoline], the inhibition at 10 µM was determined as 100%.
Take `COc1cc(OC(=O)C(C)(C)C)ccc1-c1ccc2c(c1COc1cc(F)ccc1C)C(C)=CC(C)(C)N2` [Compound 1-72, 6-(4-t-Butylcarbonyloxy-2-methoxyphenyl)-5-(5-fluoro-2-methylphenoxymethyl)-2,2,4-trimethyl-1,2-dihydroquinoline]: the inhibition at 10 µM is 98%.
With `COc1cc(OC(=O)c2cncnc2)ccc1-c1ccc2c(c1COc1cc(F)ccc1C)C(C)=CC(C)(C)N2` [Compound 1-78, 5-(5-Fluoro-2-methylphenoxymethyl)-6-[2-methoxy-4-(pyrimidin-5-ylcarbonyloxy)phenyl]-2,2,4-trimethyl-1,2-dihydroquinoline] the figure was 100%.
Take `COc1cc(OC(=O)c2ccc([N+](=O)[O-])o2)ccc1-c1ccc2c(c1COc1cc(F)ccc1C)C(C)=CC(C)(C)N2` [Compound 1-86, 5-(5-Fluoro-2-methylphenoxymethyl)-6-[2-methoxy-4-(5-nitrofuran-2-ylcarbonyloxy)phenyl]-2,2,4-trimethyl-1,2-dihydroquinoline]: the inhibition at 10 µM came to 91%.
With `COc1cc(OC(=O)c2ccnc(Cl)c2)ccc1-c1ccc2c(c1COc1cc(F)ccc1C)C(C)=CC(C)(C)N2` [Compound 1-90, 6-[4-(2-Chloropyridin-4-ylcarbonyloxy)-2-methoxyphenyl]-5-(5-fluoro-2-methylphenoxymethyl)-2,2,4-trimethyl-1,2-dihydroquinoline], the inhibition at 10 µM came out at 95%.
On to `COc1cc(OC(=O)c2ccncc2F)ccc1-c1ccc2c(c1COc1cc(F)ccc1C)C(C)=CC(C)(C)N2` [Compound 1-91, 5-(5-Fluoro-2-methylphenoxymethyl)-6-[4-(3-fluoropyridin-4-ylcarbonyloxy)-2-methoxyphenyl]-2,2,4-trimethyl-1,2-dihydroquinoline], for which the inhibition at 10 µM is 96%.
As for `COc1ccccc1C(=O)Oc1ccc(-c2ccc3c(c2COc2cc([N+](=O)[O-])ccc2C)C(C)=CC(C)(C)N3)c(OC)c1` [Compound 1-93, 6-[2-Methoxy-4-(2-methoxybenzoyloxy)phenyl]-5-(2-methyl-5-nitrophenoxymethyl)-2,2,4-trimethyl-1,2-dihydroquinoline], the inhibition at 10 µM was determined as 92%.
As to `COc1cc(OC(=O)c2cccnc2)ccc1-c1ccc2c(c1COc1cc([N+](=O)[O-])ccc1C)C(C)=CC(C)(C)N2` [Compound 1-94, 6-[2-Methoxy-4-(pyridin-3-ylcarbonyloxy)phenyl]-5-(2-methyl-5-nitrophenoxymethyl)-2,2,4-trimethyl-1,2-dihydroquinoline], the inhibition at 10 µM worked out at 100%.
On to `COc1cc(OC(=O)c2ccco2)ccc1-c1ccc2c(c1COc1cc([N+](=O)[O-])ccc1C)C(C)=CC(C)(C)N2` [Compound 1-95, 6-[4-(Furan-2-ylcarbonyloxy)-2-methoxyphenyl]-5-(2-methyl-5-nitrophenoxymethyl)-2,2,4-trimethyl-1,2-dihydroquinoline], for which the inhibition at 10 µM turned out to be 93%.
With `COc1ccc([N+](=O)[O-])cc1OCc1c(-c2ccc(OC(=O)c3ccccc3Cl)cc2OC)ccc2c1C(C)=CC(C)(C)N2` [Compound 1-98, 6-[4-(2-Chlorobenzoyloxy)-2-methoxyphenyl]-5-(2-methoxy-5-nitrophenoxymethyl)-2,2,4-trimethyl-1,2-dihydroquinoline], the inhibition at 10 µM is 100%.
As for `COc1ccc([N+](=O)[O-])cc1OCc1c(-c2ccc(OC(=O)c3cccnc3C)cc2OC)ccc2c1C(C)=CC(C)(C)N2` [Compound 1-101, 6-[2-Methoxy-4-(2-methylpyridin-3-ylcarbonyloxy)phenyl]-5-(2-methoxy-5-nitrophenoxymethyl)-2,2,4-trimethyl-1,2-dihydroquinoline], the inhibition at 10 µM turned out to be 99%.
As to `COc1ccc([N+](=O)[O-])cc1OCc1c(-c2ccc(OC(=O)c3ccccc3OC)cc2OC)ccc2c1C(C)=CC(C)(C)N2` [Compound 1-102, 6-[2-Methoxy-4-(2-methoxybenzoyloxy)phenyl]-5-(2-methoxy-5-nitrophenoxymethyl)-2,2,4-trimethyl-1,2-dihydroquinoline], the inhibition at 10 µM stood at 100%.
Take `COc1ccc([N+](=O)[O-])cc1OCc1c(-c2ccc(OC(=O)c3ccsc3)cc2OC)ccc2c1C(C)=CC(C)(C)N2` [Compound 1-115, 5-(2-Methoxy-5-nitrophenoxymethyl)-6-[2-methoxy-4-(thiophen-3-ylcarbonyloxy)phenyl]-2,2,4-trimethyl-1,2-dihydroquinoline]: the inhibition at 10 µM amounted to 97%.
With `COc1cc(OC(=O)c2ccoc2)ccc1-c1ccc2c(c1COc1cc([N+](=O)[O-])ccc1C)C(C)=CC(C)(C)N2` [Compound 1-121, 6-[4-(Furan-3-ylcarbonyloxy)-2-methoxyphenyl]-5-(2-methyl-5-nitrophenoxymethyl)-2,2,4-trimethyl-1,2-dihydroquinoline] the figure was 100%; with `COc1cc(OC(=O)c2cccnc2C)ccc1-c1ccc2c(c1COc1cc([N+](=O)[O-])ccc1C)C(C)=CC(C)(C)N2` [Compound 1-122, 6-[2-Methoxy-4-(2-methylpyridin-3-ylcarbonyloxy)phenyl]-5-(2-methyl-5-nitrophenoxymethyl)-2,2,4-trimethyl-1,2-dihydroquinoline], 100%; with `COc1cc(OC(=O)c2cccnc2OC)ccc1-c1ccc2c(c1COc1cc(F)ccc1C)C(C)=CC(C)(C)N2` [Compound 1-125, 5-(5-Fluoro-2-methylphenoxymethyl)-6-[2-methoxy-4-(2-methoxypyridin-3-ylcarbonyloxy)phenyl]-2,2,4-trimethyl-1,2-dihydroquinoline], 100%.
With `COc1cc(OC(=O)CN)ccc1-c1ccc2c(c1COc1cc(F)ccc1C)C(C)=CC(C)(C)N2` [Compound 3-1, 6-(4-Aminoacetoxy-2-methoxyphenyl)-5-(5-fluoro-2-methylphenoxymethyl)-2,2,4-trimethyl-1,2-dihydroquinoline monohydrochloride], the inhibition at 10 µM stood at 100%.
With `CCCS(=O)(=O)Oc1ccc(-c2ccc3c(c2COc2cc(F)ccc2C)C(C)=CC(C)(C)N3)c(OC)c1` [Compound 4-11, 5-(5-Fluoro-2-methylphenoxymethyl)-6-(2-methoxy-4-propylsulfonyloxyphenyl)-2,2,4-trimethyl-1,2-dihydroquinoline] the figure was 100%.
`CCS(=O)(=O)Oc1ccc(-c2ccc3c(c2COc2cc(F)ccc2C)C(C)=CC(C)(C)N3)c(OC)c1` [Compound 4-12, 6-(4-Ethylsulfonyloxy-2-methoxyphenyl)-5-(5-fluoro-2-methylphenoxymethyl)-2,2,4-trimethyl-1,2-dihydroquinoline]: the inhibition at 10 µM turned out to be 92%.
